# Assay results as given in patent US20260151375A1, “CDK2 INHIBITORS AND METHODS OF USING THE SAME” (Cedilla Therapeutics, Inc., priority 2022, published 2026).
# Assays:
# CDK2/Cyclin E1 = target: T1, CDK2/Cyclin E1 (Homo sapiens, UniProt P24941); assay: Caliper Assay (LabChip EZ Reader mobility shift assay), inhibition of CDK2/Cyclin E1 activity; type: biochemical; details: 2.5 nM CDK2/Cyclin E1(14-475), 100 μM ATP, 30 min preincubation; read-out: Caliper Assay (CDK2/CCNE1): IC50
# T1 construct: purchased 14-475
# Description: Inhibition of CDK2/Cyclin E1 activity in the presence of compounds of the present disclosure was evaluated using a Caliper LabChip® EZ Reader mobility shift assay. In the assay, activated CDK2/Cyclin E1 catalyzes the phosphorylation of a fluorescently tagged peptide 5-FAM-QSPKKG-CONH2 (PerkinElmer, FL Peptide 18) which induces a difference in capillary electrophoresis mobility. The peptide substrate and product were measured, and the conversion ratio was used to determine the inhibition (as % activity and IC50 values) of CDK2/Cyclin E1. Reactions contained 50 mM HEPES pH 7.5, 10 mM MgCl2, 1 mM EDTA, 2 mM DTT, 0.01% Brij35, 0.5 mg/mL BSA, 0.1% DMSO, 2.5 nM CDK2/Cyclin E1(14-475), 100 μM ATP, and 1.5 μM fluorescent peptide substrate.
# Dose titrations of inhibitors in 100% DMSO were combined with 3.25 nM CDK2/Cyclin E1(14-475) and 130 μM of ATP in reaction buffer. The mixtures were incubated for 30 minutes before the addition of fluorescent peptide substrate to initiate the kinase reaction. The final conditions were 2.5 nM CDK2/Cyclin E1(14-475), 100 μM ATP, and 1.5 μM fluorescent peptide. The reactions were stopped after 100 minutes with the addition of EDTA (6 mM final EDTA concentration). The stopped reactions were analyzed on a Caliper LabChip© EZ Reader II. The conversion ratios were normalized to yield % activity, plotted against compound concentration, and fit to a four-parameter equation to determine the IC50 for each compound.
# Kuramochi cells = assay: IncuCyte Kuramochi Assay (cell proliferation); type: cell-based; details: 72 h, Kuramochi cells labeled with mApple-H2B, cell count, read-out: IncuCyte - Kuramochi RB-WT: IC50
# Description: IncuCyte® assay was used to measure the effect of disclosed compounds on cell proliferation. Fluorescent microscopy images of cells were taken immediately after compound treatment and 72 hours later. Image analysis software was used to obtain cell counts as a function of compound concentration. Kuramochi cells labeled with mApple-H2B were seeded on 384-well assay-ready plates. Plates were placed in an IncuCyte® (Sartorius) and scanned at 0 and 72 hours. IncuCyte® software was used to count the number of fluorescent nuclei in each well. The fold change in cell count from 0 to 72 hours in wells treated with increasing compounds concentrations (10 pts, ½ log dilution, 20 μM top concentration) was normalized to DMSO control wells. The normalized cell counts were fit with dose response curves and a […] was calculated.
Compound,IC50 (CDK2/Cyclin E1),IC50 (Kuramochi cells)
CC1(C)C[C@@H]1C(=O)N1CC2(CN(C(=O)c3cncs3)CC2c2nnc(Cc3ccc4c(c3)OCCO4)o2)C1 (some centres unmarked) [I-27],0.1 to 1 µM,> 10 µM
CC1(C)C[C@@H]1C(=O)N1CC2(CN(C(=O)c3cncs3)CC2c2nnc(CCc3ccc(Cl)c(Cl)c3)o2)C1 (some centres unmarked) [I-28],0.1 to 1 µM,> 10 µM
"CC1(C)C[C@@H]1C(=O)N1CC2(CN(C(=O)c3cncs3)CC2c2nnc(Cc3cc[nH]n3)o2)C1 (stereo partly drawn) [I-29, (8-(5-((1H-pyrazol-3-yl)methyl)-1,3,4-oxadiazol-2-yl)-2-((S)-2,2-dimethylcyclopropane-1-carbonyl)-2,6-diazaspiro[3.4]octan-6-yl)(thiazol-5-yl)methanone]",> 10 µM,> 10 µM
CC1(C)C[C@@H]1C(=O)N1CC2(CN(C(=O)c3cncs3)CC2c2nnc(Cc3ccc(Cl)cc3)o2)C1 (some centres unmarked) [I-30],1 to 10 µM,> 10 µM
CC1(C)C[C@@H]1C(=O)N1CC2(CN(C(=O)c3cncs3)CC2c2nnc(Cc3ccc(C4CCOCC4)c(Cl)c3)o2)C1 (some centres unmarked) [I-31],0.1 to 1 µM,> 10 µM
CC1(C)C[C@@H]1C(=O)N1CC2(CN(C(=O)c3cncs3)CC2c2nnc(Cc3cccc4c3OCCO4)o2)C1 (some centres unmarked) [I-33],1 to 10 µM,> 10 µM
COc1ccccc1C(F)(F)c1nnc(C2CN(C(=O)c3cncs3)CC23CN(C(=O)[C@H]2CC2(C)C)C3)o1 (some centres unmarked) [I-34],1 to 10 µM,> 10 µM
"CC1(C)C[C@@H]1C(=O)N1CC2(C1)CN(c1ncnc3ncsc13)CC2c1nnc(C(F)(F)c2ccc(Cl)cc2)o1 (stereo partly drawn) [I-37, (8-(5-((4-chlorophenyl)difluoromethyl)-1,3,4-oxadiazol-2-yl)-6-(thiazolo[4,5-d]pyrimidin-7-yl)-2,6-diazaspiro[3.4]octan-2-yl)((S)-2,2-dimethylcyclopropyl)methanone]",1 to 10 µM,> 10 µM
CC(C)(c1ccc(Cl)c(Cl)c1)c1nnc(C2CN(C(=O)c3cncs3)CC23CN(C(=O)[C@H]2CC2(C)C)C3)o1 (some centres unmarked) [I-39],0.1 to 1 µM,> 10 µM
CC1(C)C[C@@H]1C(=O)N1CC2(CN(C(=O)c3cncs3)CC2c2nnc(C(F)(F)c3ccc(C4CC4)cc3)o2)C1 (some centres unmarked) [I-40],0.1 to 1 µM,> 10 µM
O=C(c1cncs1)N1CC(c2nnc(Cc3ccc(Cl)c(Cl)c3)o2)C2(C1)CN(c1nc3ccccc3o1)C2 (centres unmarked) [I-41],> 10 µM,> 10 µM
"CCOc1cc(C)nn1C(C)c1nc(C2CN(C(=O)c3cncs3)CC23CN(C(=O)[C@H]2CC2(C)C)C3)no1 (stereo partly drawn) [I-42, (2-((S)-2,2-dimethylcyclopropane-1-carbonyl)-8-(5-(1-(5-ethoxy-3-methyl-1H-pyrazol-1-yl)ethyl)-1,2,4-oxadiazol-3-yl)-2,6-diazaspiro[3.4]octan-6-yl)(thiazol-5-yl)methanone]",1 to 10 µM,> 10 µM
"CC1(C)C[C@@H]1C(=O)N1CC2(CN(C(=O)c3ccnnc3)CC2c2nnc(C(F)(F)c3ccc(Cl)c(Cl)c3)o2)C1 (stereo partly drawn) [I-43, (8-(5-((3,4-dichlorophenyl)difluoromethyl)-1,3,4-oxadiazol-2-yl)-2-((S)-2,2-dimethylcyclopropane-1-carbonyl)-2,6-diazaspiro[3.4]octan-6-yl)(pyridazin-4-yl)methanone]",1 to 10 µM,> 10 µM
CC1(C)C[C@@H]1C(=O)N1CC2(CN(C(=O)c3cnco3)CC2c2nnc(C(F)(F)c3ccc(Cl)c(Cl)c3)o2)C1 (some centres unmarked) [I-44],1 to 10 µM,> 10 µM
CC1(C)C[C@@H]1C(=O)N1CC2(CN(C(=O)c3ncccn3)CC2c2nnc(C(F)(F)c3ccc(Cl)c(Cl)c3)o2)C1 (some centres unmarked) [I-46],> 10 µM,> 10 µM
O=C(c1cncs1)N1CC(c2nnc(Cc3ccc(Cl)c(Cl)c3)o2)C2(C1)CN(c1ncc(C(F)(F)F)cn1)C2 (centres unmarked) [I-47],> 10 µM,> 10 µM
O=C(c1cncs1)N1CC(c2nnc(Cc3ccc(Cl)c(Cl)c3)o2)C2(C1)CN(c1ncccn1)C2 (centres unmarked) [I-49],> 10 µM,> 10 µM
"CC1(C)C[C@@H]1C(=O)N1CC2(CN(C(=O)c3cncs3)CC2c2nnc(Cc3nc(C4CCOCC4)ccc3F)o2)C1 (stereo partly drawn) [I-50, (2-((S)-2,2-dimethylcyclopropane-1-carbonyl)-8-(5-((3-fluoro-6-(tetrahydro-2H-pyran-4-yl)pyridin-2-yl)methyl)-1,3,4-oxadiazol-2-yl)-2,6-diazaspiro[3.4]octan-6-yl)(thiazol-5-yl)methanone]",1 to 10 µM,> 10 µM
"CC1(C)C[C@@H]1C(=O)N1CC2(CN(C(=O)c3cncs3)CC2c2cn(Cc3ccc(Cl)c(Cl)c3)nn2)C1 (stereo partly drawn) [I-51, (8-(1-(3,4-dichlorobenzyl)-1H-1,2,3-triazol-4-yl)-2-((S)-2,2-dimethylcyclopropane-1-carbonyl)-2,6-diazaspiro[3.4]octan-6-yl)(thiazol-5-yl)methanone]",> 10 µM,> 10 µM

Compound,IC50 (CDK2/Cyclin E1),IC50 (Kuramochi cells)
CC1(C)C[C@@H]1C(=O)N1CC2(CN(C(=O)c3cn[nH]c3)CC2c2nnc(C(F)(F)c3ccc(Cl)c(Cl)c3)o2)C1 (some centres unmarked) [I-52],0.1 to 1 µM,> 10 µM
CC1(C)C[C@@H]1C(=O)N1CC2(CN(C(=O)c3cccnn3)CC2c2nnc(C(F)(F)c3ccc(Cl)c(Cl)c3)o2)C1 (some centres unmarked) [I-53],> 10 µM,> 10 µM
CC1(C)C[C@@H]1C(=O)N1CC2(CN(C(=O)c3cnc(C(F)(F)F)s3)CC2c2nnc(C(F)(F)c3ccc(Cl)c(Cl)c3)o2)C1 (some centres unmarked) [I-54],> 10 µM,> 10 µM
COc1ccc(C2CCOCC2)nc1Cc1nnc(C2CN(C(=O)c3cncs3)CC23CN(C(=O)[C@H]2CC2(C)C)C3)o1 (some centres unmarked) [I-55],0.1 to 1 µM,> 10 µM
CC1(C)C[C@@H]1C(=O)N1CC2(CN(C(=O)c3cncnc3)CC2c2nnc(C(F)(F)c3ccc(Cl)c(Cl)c3)o2)C1 (some centres unmarked) [I-56],1 to 10 µM,> 10 µM
CC(C)(C(=O)N1CC2(CN(C(=O)c3cncs3)CC2c2nnc(C(F)(F)c3ccc(Cl)c(Cl)c3)o2)C1)C(F)(F)F (centres unmarked) [I-57],0.1 to 1 µM,> 10 µM
"O=C(c1cncs1)N1CC(c2nnc(C(F)(F)c3ccc(Cl)c(Cl)c3)o2)C2(C1)CN(c1ncccn1)C2 (centres unmarked) [I-59, (8-(5-((3,4-dichlorophenyl)difluoromethyl)-1,3,4-oxadiazol-2-yl)-2-(pyrimidin-2-yl)-2,6-diazaspiro[3.4]octan-6-yl)(thiazol-5-yl)methanone]",> 10 µM,> 10 µM
O=C(c1cncs1)N1CC(c2nnc(Cc3ccc(Cl)c(Cl)c3)o2)C2(C1)CN(c1cccc[n+]1[O-])C2 (centres unmarked) [I-60],> 10 µM,> 10 µM
CC1(C)C[C@@H]1C(=O)N1CC2(CN(C(=O)c3cncs3)CC2c2nnc(C3(c4ccc(Cl)c(Cl)c4)CC(O)C3)o2)C1 (some centres unmarked) [I-61],0.01 to 0.1 µM,> 10 µM
CC(C)(c1coc(C2CCCC2)n1)c1nc(C2CN(C(=O)c3cncs3)CC23CN(C(=O)[C@H]2CC2(C)C)C3)no1 (some centres unmarked) [I-62],0.01 to 0.1 µM,5 to 10 µM
Cc1cc(O)nn1C(C)c1nc(C2CN(C(=O)c3cncs3)CC23CN(C(=O)[C@H]2CC2(C)C)C3)no1 (some centres unmarked) [I-63],1 to 10 µM,> 10 µM
CC(c1nc(C2CN(C(=O)c3cncs3)CC23CN(C(=O)[C@H]2CC2(C)C)C3)no1)n1cc(C2CCCC2)cn1 (some centres unmarked) [I-64],0.01 to 0.1 µM,> 10 µM
CC1(C)C[C@@H]1C(=O)N1CC2(CN(C(=O)c3cncs3)CC2c2nnc(C(F)(F)c3ccc(Cl)cc3)o2)C1 (some centres unmarked) [I-65],1 to 10 µM,> 10 µM
"Cc1nc(C)c(C(=O)N2CC(c3nnc(Cc4cccc(C5CCOCC5)n4)o3)C3(C2)CN(C(=O)[C@H]2CC2(C)C)C3)s1 (stereo partly drawn) [I-66, (2-((S)-2,2-dimethylcyclopropane-1-carbonyl)-8-(5-((6-(tetrahydro-2H-pyran-4-yl)pyridin-2-yl)methyl)-1,3,4-oxadiazol-2-yl)-2,6-diazaspiro[3.4]octan-6-yl)(2,4-dimethylthiazol-5-yl)methanone]",0.1 to 1 µM,> 10 µM
CC1(C)C[C@@H]1C(=O)N1CC2(CN(C(=O)c3cncs3)CC2c2nnc(Cc3nc4ccccc4o3)o2)C1 (some centres unmarked) [I-67],1 to 10 µM,> 10 µM
COc1ccc(C(F)(F)c2nnc(C3CN(C(=O)c4cncs4)CC34CN(C(=O)[C@H]3CC3(C)C)C4)o2)cc1 (some centres unmarked) [I-68],0.1 to 1 µM,> 10 µM
CC1(C)C[C@@H]1C(=O)N1CC2(CN(C(=O)c3cncs3)CC2c2nnc(C(F)(F)c3ccc(Br)cc3)o2)C1 (some centres unmarked) [I-69],0.1 to 1 µM,> 10 µM
CC1(C)C[C@@H]1C(=O)N1CC2(CN(C(=O)c3cncs3)CC2c2nnc(C(F)(F)c3ccccc3)o2)C1 (some centres unmarked) [I-70],1 to 10 µM,> 10 µM
